Source: patent publication US4382889A, “Epoxysuccinic acid derivatives” (Taisho Pharmaceutical Co., Ltd., priority 1979, dated 1983)
Where a name gives a salt, the structure may show the parent alone.

Key:
papain = target: T1, papain (Carica papaya, UniProt P00784); experiment: Papain inhibitory activity (method of K. Hanada et al); format: biochemical; details: papain 80 ug/ml, Sigma, 2 x cry.
T1 construct: purchased Sigma Chem. Co
T1 sequence (P00784 134-345): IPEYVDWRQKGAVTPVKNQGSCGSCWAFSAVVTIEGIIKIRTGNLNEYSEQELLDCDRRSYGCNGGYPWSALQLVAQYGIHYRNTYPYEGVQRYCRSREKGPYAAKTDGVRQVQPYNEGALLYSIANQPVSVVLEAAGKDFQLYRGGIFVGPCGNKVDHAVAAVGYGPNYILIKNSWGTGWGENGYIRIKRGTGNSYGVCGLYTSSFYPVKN
Procedure: Papain inhibitory activity of the compounds of the present invention was assayed by the method of K. Hanada et al, [Argric. Biol. Chem., 42, No. 3, 523(1978)] using papain (80 ug/ml, Sigma Chem. Co., 2 x cry.).

[1] = Concentration of test compound in rat plasma after subcutaneous administration; format: in vivo; details: sc, 50 mg/kg, an hour after administration
Procedure: The compounds of the present invention are better absorbed by the subcutaneous route in mammals such as rats or rabbits, as compared with the epoxysuccinic acid derivatives of the German Patent Laid Open Application described above and Chemical Abstracts, 87, 68129a (1977). To determine absorption, these compounds were administered subcutaneously to rat at a dose of 50 mg/kg, and the concentration of the test compound in rat plasma at an hour after the administration was shown in Table 1.

[2] = target: T2, calcium-activated neutral thiolprotease (CANP) (Gallus gallus, UniProt P00789); experiment: CANP inhibitory activity (method of Ishiura et al); format: biochemical; details: 50% inhibition as molar ratio to the enzyme; CANP from muscle of hereditary muscular dystrophy chicken
T2 construct: CANP prepared from a muscle of hereditary muscular dystrophy chicken; from tissue; host or cells: muscle of hereditary muscular dystrophy chicken
T2 sequence (P00789 1-705): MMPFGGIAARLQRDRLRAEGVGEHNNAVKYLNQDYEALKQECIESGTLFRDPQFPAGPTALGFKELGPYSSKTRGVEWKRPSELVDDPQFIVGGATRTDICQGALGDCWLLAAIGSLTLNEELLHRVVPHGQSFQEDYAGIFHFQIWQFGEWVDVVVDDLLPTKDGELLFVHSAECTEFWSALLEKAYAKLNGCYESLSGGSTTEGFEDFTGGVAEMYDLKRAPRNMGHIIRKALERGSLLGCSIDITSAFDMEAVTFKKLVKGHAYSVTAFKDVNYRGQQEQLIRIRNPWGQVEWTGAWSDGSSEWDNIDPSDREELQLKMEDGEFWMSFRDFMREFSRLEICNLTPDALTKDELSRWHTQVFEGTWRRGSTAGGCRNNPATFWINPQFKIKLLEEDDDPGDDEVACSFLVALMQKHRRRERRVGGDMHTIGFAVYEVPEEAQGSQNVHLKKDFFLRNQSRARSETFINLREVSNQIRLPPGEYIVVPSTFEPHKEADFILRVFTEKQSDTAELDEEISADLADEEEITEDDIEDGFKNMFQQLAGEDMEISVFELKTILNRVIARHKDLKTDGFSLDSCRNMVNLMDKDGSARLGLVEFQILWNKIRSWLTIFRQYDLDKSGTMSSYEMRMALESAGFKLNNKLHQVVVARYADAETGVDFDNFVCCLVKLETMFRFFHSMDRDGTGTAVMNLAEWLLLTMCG
Procedure: Their muscular dystrophy inhibitory activity was assayed by the method of Ishiura et al, [J. of Biochem., 84, 225(1978)] using CANP prepared from a muscle of hereditary muscular dystrophy chicken, and the resulting value for 50% inhibition in the molar ratios for the enzyme expressed as ID50 (mole/mole) is shown in Table 1.

SMILES | Papain ID50 (amount of inhibitor for 50% inhibition) (papain) | concentration at 1 h [1] | CANP Inhibitory Activity ID50 (mole/mole) [2]
CC[C@H](C)[C@H](NC(=O)C1OC1C(=O)OCc1ccccc1)C(=O)N(C)Cc1ccccc1 (mixture of isomers) [Compound 12, N-[N'-(DL-3-trans-benzyloxycarbonyloxirane-2-carbonyl)-L-isoleucyl]-N-methylbenzylamine] | 0.260 µg | 1300 ng/mL | 65 mole/mole
CC(C)C[C@H](NC(=O)C1OC1C(=O)O)C(=O)NC(C)C (mixture of isomers) [Compound 15, N-[N'-(DL-3-trans-carboxyoxirane-2-carbonyl)-L-leucyl]isopropylamine potassium salt] | 0.112 µg | 20000 ng/mL | 35 mole/mole
CC(C)C[C@H](NC(=O)C1OC1C(=O)O)C(=O)NCCc1ccccc1 (mixture of isomers) [Compound 16, N-[N'-(DL-3-trans-carboxyoxirane-2-carbonyl)-L-leucyl]phenethylamine potassium salt] | 0.123 µg | 12000 ng/mL | 90 mole/mole
COC(=O)[C@@H]1CCCN1C(=O)[C@H](CC(C)C)NC(=O)C1OC1C(=O)OCc1ccccc1 (mixture of isomers) [Compound 19, N-(DL-3-trans-benzyloxycarbonyloxirane-2-carbonyl)-L-leucyl-L-proline methyl ester] | 0.123 µg | 1500 ng/mL | 23 mole/mole
CC(C)C[C@H](NC(=O)C1OC1C(=O)OCc1ccccc1)C(=O)N[C@@H](CCCNC(=O)OCc1ccccc1)C(=O)OCc1ccccc1 (mixture of isomers) [Compound 30, N-(DL-3-trans-benzyloxycarbonyloxirane-2-carbonyl)-L-leucyl-δ-carbobenzoxy-L-ornithine benzyl ester] | 0.391 µg | 2000 ng/mL | 100 mole/mole
COC(=O)[C@H](CCCN=C(N)N)NC(=O)[C@H](CC(C)C)NC(=O)C1OC1C(=O)O (mixture of isomers) [Compound 43, N-(DL-3-transcarboxyoxirane-2-carbonyl)-L-leucyl-L-arginine methyl ester] | 0.195 µg | 7000 ng/mL | 100 mole/mole
CC(C)C[C@H](NC(=O)[C@H](CC(C)C)NC(=O)C1OC1C(=O)O)C(=O)O (mixture of isomers) [Compound 45, N-(DL-3-trans-carboxyoxirane-2-carbonyl)-L-leucyl-L-leucine] | 0.236 µg | 15000 ng/mL | 64 mole/mole
CCOC(=O)[C@H]1O[C@@H]1C(=O)O (relative stereo) [A, Ethyl hydrogen epoxysuccinate, reference compound] |  | < 1000 ng/mL | 5,400 mole/mole
O=C(O)[C@H]1O[C@@H]1C(=O)OCc1ccccc1 (relative stereo) [B, Benzyl hydrogen epoxysuccinate, reference compound] |  | < 1000 ng/mL | 410 mole/mole
CCOC(=O)C1OC1C(=O)N[C@@H](CC(C)C)C(=O)OCc1ccccc1 (stereo partly drawn) [C, N--(3ethoxy-carbonyloxirane-2-carbonyl)-L-leucine benzyl ester, reference compound] |  | < 1000 ng/mL | 580 mole/mole
COC(=O)C1OC1C(=O)N[C@@H](CC(C)C)C(=O)N[C@@H](CCSC)C(=O)OC (stereo partly shown) [Compound 28] | 0.156 µg |  | 
COC(=O)[C@@H](NC(=O)[C@H](CC(C)C)NC(=O)C1OC1C(=O)OCc1ccccc1)[C@@H](C)O (stereo partly shown) [Compound 29] | 0.35 µg |  | 
CCOC(=O)[C@H](Cc1ccccc1)NC(=O)[C@H](CC(C)C)NC(=O)C1OC1C(=O)OCc1ccccc1 (stereo partly shown) [Compound 31] | 0.375 µg |  | 
COC(=O)[C@H](CC(C)C)NC(=O)[C@H](CC(C)C)NC(=O)C1OC1C(=O)OCc1ccccc1 (stereo partly shown) [Compound 32] | 0.227 µg |  | 
COC(=O)[C@@H](CC(C)C)NC(=O)[C@@H](CC(C)C)NC(=O)C1OC1C(=O)OCc1ccccc1 (stereo partly shown) [Compound 33] | 0.255 µg |  | 
CC(C)C[C@H](NC(=O)[C@H](CC(C)C)NC(=O)C1OC1C(=O)OCc1ccccc1)C(N)=O (stereo partly shown) [Compound 34] | 0.298 µg |  | 
CCOC(=O)C1OC1C(=O)N[C@@H](CC(C)C)C(=O)N[C@@H](CC(C)C)C(=O)N(C)C (stereo partly shown) [Compound 35] | 0.212 µg |  | 
COC(=O)[C@H](CC(C)C)NC(=O)[C@H](Cc1ccccc1)NC(=O)C1OC1C(=O)OCc1ccccc1 (stereo partly shown) [Compound 36] | 0.595 µg | 1800 ng/mL | 200 mole/mole
COC(=O)[C@H](Cc1ccccc1)NC(=O)[C@H](Cc1ccccc1)NC(=O)C1OC1C(=O)OCc1ccccc1 (stereo partly shown) [Compound 37] | 2.50 µg |  | 
CCC(C)[C@H](NC(=O)C1OC1C(=O)OCc1ccccc1)C(=O)N[C@@H](Cc1c[nH]c2ccccc12)C(=O)OC (stereo partly shown) [Compound 38] | 0.305 µg |  | 
CCC(C)[C@H](NC(=O)C1OC1C(=O)OCc1ccccc1)C(=O)N[C@@H](Cc1ccc(O)cc1)C(=O)OC (stereo partly shown) [Compound 39] | 0.408 µg |  | 
CCOC(=O)CNC(=O)[C@@H](NC(=O)C1OC1C(=O)OCc1ccccc1)C(C)CC (stereo partly shown) [Compound 40] | 0.481 µg |  | 
CCC(C)[C@H](NC(=O)C1OC1C(=O)OCc1ccccc1)C(=O)N[C@H](C(=O)OC)C(C)C (stereo partly shown) [Compound 41] | 0.272 µg |  | 
COC(=O)[C@H](C)NC(=O)[C@@H](NC(=O)C1OC1C(=O)OCc1ccccc1)C(C)C (stereo partly shown) [Compound 42] | 0.595 µg | 1100 ng/mL | 120 mole/mole
O=C(O)C1OC1C(=O)N[C@@H](Cc1ccccc1)C(=O)OCc1ccccc1 (stereo partly drawn) [D, N--(3carboxyoxirane-2-carbonyl)-L-phenylalanine benzyl ester, reference compound] |  | < 1000 ng/mL | 574 mole/mole
CC(C)C[C@H](NC(=O)C1OC1C(=O)O)C(=O)O (stereo partly drawn) [E, N--(3carboxyoxirane-2-carbonyl)-L-leucine, reference compound] |  | < 1000 ng/mL | 4,600 mole/mole
